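Tested at 5 concentrations; 48 h exposure; 96-well plates; endpoints linearly interpolated, else capped at highest concentration. Here, GI50 denotes the concentration required for 50% inhibition of growth.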 Calls of active or inactive are those of the source. Cut-off read from the data, not from the text of the source: active = GI50 up to about 1.1 µM and inactive = higher.
Experiments:
Assay in all cases: DTP human tumour cell line panel, 48 h
BT-549 = system: BT-549
MDA-MB-231 = system: MDA-MB-231
SR = system: SR
SNB-19 = system: SNB-19
CCRF-CEM = system: CCRF-CEM
ACHN = system: ACHN
HOP-92 = system: HOP-92
MOLT-4 = system: MOLT-4
DU-145 = system: DU-145
SF-295 = system: SF-295
CAKI-1 = system: CAKI-1
UACC-62 = system: UACC-62
SW-620 = system: SW-620
LOX IMVI = system: LOX IMVI
A498 = system: A498
HT-29 = system: HT-29
MCF7 = system: MCF7
786-0 = system: 786-0
SF-539 = system: SF-539
OVCAR-4 = system: OVCAR-4

Measured: GI50

N#CC1Cc2cc3c(cc21)OCO3 (stereo not given)
inactive: BT-549 > 100 µM | MDA-MB-231 > 100 µM | SR > 100 µM | SNB-19 > 100 µM | CCRF-CEM > 100 µM | ACHN > 100 µM | HOP-92 > 100 µM | MOLT-4 > 100 µM | DU-145 > 100 µM | SF-295 > 100 µM | CAKI-1 > 100 µM | UACC-62 > 100 µM | SW-620 > 100 µM | LOX IMVI > 100 µM | A498 > 100 µM | HT-29 > 100 µM | MCF7 > 100 µM | 786-0 > 100 µM | SF-539 > 100 µM | OVCAR-4 > 100 µM

O=c1[nH]nc(Cc2ccccc2)n1/N=C/c1c(O)ccc2ccccc12
inactive: BT-549 82.4 µM | MDA-MB-231 19.7 µM | SR 21.3 µM | SNB-19 18.4 µM | CCRF-CEM 43.6 µM | ACHN 22 µM | HOP-92 19.2 µM | MOLT-4 26.4 µM | DU-145 57 µM | SF-295 26.9 µM | CAKI-1 28.2 µM | UACC-62 29.2 µM | SW-620 43.5 µM | LOX IMVI 54 µM | A498 18.5 µM | HT-29 28.4 µM | MCF7 37.9 µM | 786-0 16.7 µM | SF-539 19.8 µM | OVCAR-4 17.2 µM

— ChEMBL document CHEMBL1201862, “PubChem BioAssay data set” (2004)
